{
  "source": "patent US8691855B2",
  "about": "“Compounds, isomer thereof, or pharmaceutically acceptable salts thereof as vanilloid receptor antagonist and pharmaceutical compositions containing the same” (Amorepacific Corporation, priority 2008, dated 2014)",
  "data": [
    {"target": "T1, vanilloid receptor (Rattus norvegicus, UniProt O35433)", "T1 construct": "DRG nerve cells from the primary culture of 2 days were equilibrated; endogenous in cells; host or cells: primary culture of dorsal root ganglion neurons from neonatal SD rats", "T1 sequence (O35433 whole entry)": "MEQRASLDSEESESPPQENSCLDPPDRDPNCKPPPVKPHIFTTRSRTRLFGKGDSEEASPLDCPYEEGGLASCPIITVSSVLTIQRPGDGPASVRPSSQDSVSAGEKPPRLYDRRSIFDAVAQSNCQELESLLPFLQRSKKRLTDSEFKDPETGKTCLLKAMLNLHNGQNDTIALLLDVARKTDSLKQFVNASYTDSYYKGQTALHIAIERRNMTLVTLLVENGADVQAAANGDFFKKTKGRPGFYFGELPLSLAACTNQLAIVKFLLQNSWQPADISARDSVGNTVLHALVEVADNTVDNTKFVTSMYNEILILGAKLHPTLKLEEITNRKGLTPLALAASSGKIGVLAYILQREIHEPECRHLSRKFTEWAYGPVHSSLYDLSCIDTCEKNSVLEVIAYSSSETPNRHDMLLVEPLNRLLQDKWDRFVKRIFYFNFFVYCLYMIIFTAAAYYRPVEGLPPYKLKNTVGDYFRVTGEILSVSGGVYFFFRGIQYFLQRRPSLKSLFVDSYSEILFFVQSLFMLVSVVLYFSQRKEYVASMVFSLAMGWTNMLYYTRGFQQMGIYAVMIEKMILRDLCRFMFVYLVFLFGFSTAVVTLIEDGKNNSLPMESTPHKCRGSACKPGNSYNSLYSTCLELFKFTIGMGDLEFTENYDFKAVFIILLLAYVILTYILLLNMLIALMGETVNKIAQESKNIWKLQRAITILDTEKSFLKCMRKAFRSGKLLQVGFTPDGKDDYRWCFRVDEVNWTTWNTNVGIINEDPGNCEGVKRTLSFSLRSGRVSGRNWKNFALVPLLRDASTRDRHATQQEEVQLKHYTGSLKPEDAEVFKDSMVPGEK", "assay": "45Ca influx test (antagonist calcium uptake test) in rat DRG neurons stimulated with capsaicin", "type": "cell-based", "conditions": "DRG neuron; @1 μM; neonatal SD rat DRG neurons; capsaicin 0.5 μM; read-out: Antagonist Calcium Uptake Test, percent inhibition of capsaicin response", "method": "(§1) 1) Separation of spinal dorsal root ganglia (DRG) in newborn rats and primary culture thereof\n(§2) Neonatal (2-3 clay old or younger than 2-3 day old) SD rats were put in ice for 5 minutes to anesthetize and disinfected with 70% ethanol. DRG of all part of spinal cord were dissected (Wood et al., 1988, J. Neurosci. 8, pp 3208-3220) and collected in DME/F12 medium to which 1.2 g/l sodium bicarbonate and 50 mg/l gentamycin were added. The DRG were incubated sequentially at 37° C. for 30 mins in 200 U/ml collagenase and 2.5 mg/ml trypsin, separately. The ganglia were washed twice with DME/F12 medium supplemented with 10% horse serum, triturated through a fire-polished Pasteur pipette, filtered through Nitex 80 membrane to obtain single cell suspension and the suspension was washed once more. This was subjected to centrifugation, then resuspended in cell culture medium at certain level of cell density. As the cell culture medium, DME/F12 medium supplemented with 10% horse serum was diluted with identical medium conditioned by C6 glioma cells 2 clays on a confluent monolayer (1:1), and NGF (Nerve Growth Factor) was added to adjust 200 ng/ml as final concentration. After the cells were grown 2 days in medium where cytosine arabinoside (Ara-C, 100 μM) was added to kill dividing nonneuronal cells, medium was changed to one without Ara-C. The resuspended cells were plated at a density of 1500-2000 neurons/well onto Terasaki plates previously coated with 10 μg/ml poly-D-ornithine.\n(§3) 2) ^45Ca Influx Experiments\n(§4) DRG nerve cells from the primary culture of 2 days were equilibrated by washing 4 times with HEPES (10 mM, pH 7.4)-buffered Ca^2+, Mg^2+-free HBSS (H-HBSS). The solution in each well was removed from the individual well. Medium containing the test compound plus capsaicin (final concentration 0.5 μM) and ^45Ca (final concentration 10 μCi/ml) in H-HBSS was added to each well and incubated at room temperature for 10 nuns. Terasaki plates were washed five times with H-HBSS and dried at room temperature. To each well, 0.3% SDS (10 μl) was added to elute ^45Ca. After the addition of scintillation cocktail of into each well, the amount of ^45Ca influx into neuron was measured by counting radioactivity. Antagonistic activities of test compounds against vanilloid receptor were calculated as percent of the inhibition of maximal response of capsaicin at a concentration of 0.5 μM.", "units": {"inhibition at 1 µM": "%"}, "values": [
      {"smiles": "C[C@@H](NC(=O)c1coc(Oc2cccc3c2CCCC3)n1)c1cc(F)c(NS(C)(=O)=O)c(F)c1", "note": "(stereo in doubt) [Example 55, 2-(5,6,7,8-Tetrahydro-naphthalen-1-yloxy)-oxazole-4-carboxylic acid [1-(3,5-difluoro-4-methanesulfonylamino-phenyl)-ethyl]-amide]", "inhibition at 1 µM": 74}
    ]},
    {"target": "T1, vanilloid receptor", "assay": "45Ca influx test (antagonist calcium uptake test) in rat DRG neurons stimulated with capsaicin", "type": "cell-based", "conditions": "neonatal SD rat DRG neurons; capsaicin 0.5 μM; 45Ca", "method": "as §1, §2, §3, §4", "units": {"IC50": "nM"}, "values": [
      {"smiles": "C[C@@H](NC(=O)c1coc(-c2ccc(F)c(C(F)(F)F)c2)n1)c1cc(F)c(NS(C)(=O)=O)c(F)c1", "note": "[Example 92, 2-(4-Fluoro-3-trifluoromethyl-phenyl)-oxazole-4-carboxylic acid [1-(3,5-difluoro-4-methanesulfonylamino-phenyl)-ethyl]-amide]", "IC50": 1700},
      {"smiles": "COc1cc(-c2nc(C(=O)N[C@H](C)c3cc(F)c(NS(C)(=O)=O)c(F)c3)co2)cc(C(F)(F)F)c1", "note": "[Example 97, 2-(3-Methoxy-5-trifluoromethyl-phenyl)-oxazole-4-carboxylic acid [1-(3,5-difluoro-4-methanesulfonylamino-phenyl)-ethyl]-amide]", "IC50": 1400},
      {"smiles": "C[C@@H](NC(=O)c1coc(-c2cccc3ccccc23)n1)c1cc(F)c(NS(C)(=O)=O)c(F)c1", "note": "[Example 88, 2-Naphthalen-1-yl-oxazole-4-carboxylic acid [1-(3,5-difluoro-4-methanesulfonylamino-phenyl)-ethyl]-amide]", "IC50": 720},
      {"smiles": "C[C@@H](NC(=O)c1coc(Nc2cccc(C(F)(F)F)c2)n1)c1cc(F)c(NS(C)(=O)=O)c(F)c1", "note": "[Example 44, 2-(3-Trifluoromethyl-phenylamino)-oxazole-4-carboxylic acid [1-(3,5-difluoro-4-methanesulfonylamino-phenyl)-ethyl]-amide]", "IC50": 5500},
      {"smiles": "C[C@@H](NC(=O)c1coc(Oc2cccc(C#N)c2)n1)c1cc(F)c(NS(C)(=O)=O)c(F)c1", "note": "[Example 17, 2-(3-Cyano-phenoxy)-oxazole-4-carboxylic acid [1-(3,5-difluoro-4-methanesulfonylamino-phenyl)-ethyl]-amide]", "IC50": "> 10000"},
      {"smiles": "Cc1ccc(C2CCCCC2)c(Oc2nc(C(=O)N[C@H](C)c3cc(F)c(NS(C)(=O)=O)c(F)c3)co2)c1", "note": "[Example 50, 2-(2-Cyclohexyl-5-methyl-phenoxy)-oxazole-4-carboxylic acid [1-(3,5-difluoro-4-methanesulfonylamino-phenyl)-ethyl]-amide]", "IC50": 1100},
      {"smiles": "CC(=O)c1cccc(-c2nc(C(=O)N[C@H](C)c3cc(F)c(NS(C)(=O)=O)c(F)c3)co2)c1", "note": "[Example 76, 2-(3-Acetyl-phenyl)-oxazole-4-carboxylic acid [1-(3,5-difluoro-4-methanesulfonylamino-phenyl)-ethyl]-amide]", "IC50": "> 10000"},
      {"smiles": "C[C@@H](NC(=O)c1coc(-c2cccc(C(F)(F)F)c2F)n1)c1cc(F)c(NS(C)(=O)=O)c(F)c1", "note": "(stereo in doubt) [Example 79, 2-(2-Fluoro-3-trifluoromethyl-phenyl)-oxazole-4-carboxylic acid [1-(3,5-difluoro-4-methanesulfonylamino-phenyl)-ethyl]-amide]", "IC50": 990},
      {"smiles": "C[C@@H](NC(=O)c1cnc(-c2cc(C(F)(F)F)cc(C(F)(F)F)c2)s1)c1cc(F)c(NS(C)(=O)=O)c(F)c1", "note": "[Example 126, 2-(3,5-Bis-trifluoromethyl-phenyl)-thiazole-5-carboxylic acid [1-(3,5-difluoro-4-methanesulfonylamino-phenyl)-ethyl]-amide]", "IC50": 490},
      {"smiles": "C[C@@H](NC(=O)c1coc(-c2cccc(N(C)C)c2)n1)c1cc(F)c(NS(C)(=O)=O)c(F)c1", "note": "[Example 81, 2-(3-Dimethylamino-phenyl)-oxazole-4-carboxylic acid [1-(3,5-difluoro-4-methanesulfonylamino-phenyl)-ethyl]-amide]", "IC50": 1000},
      {"smiles": "C[C@H](NC(=O)c1ccc(-c2cccc(C(F)(F)F)c2)o1)c1cc(F)c(NS(C)(=O)=O)c(F)c1", "note": "[Example 109, (S)-5-(3-Trifluoromethyl-phenyl)-furan-2-carboxylic acid [1-(3,5-difluoro-4-methanesulfonylamino-phenyl)-ethyl]-amide]", "IC50": 270},
      {"smiles": "C[C@@H](NC(=O)c1coc(-c2cc(Br)cc(C3CC3)c2)n1)c1cc(F)c(NS(C)(=O)=O)c(F)c1", "note": "[Example 115, 2-(3-Bromo-5-cyclopropyl-phenyl)-oxazole-4-carboxylic acid [1-(3,5-difluoro-4-methanesulfonylamino-phenyl)-ethyl]-amide]", "IC50": 770},
      {"smiles": "C[C@@H](NC(=O)c1csc(Cc2ccc(F)c(F)c2)n1)c1cc(F)c(NS(C)(=O)=O)c(F)c1", "note": "[Example 11, (R)—N-[1-(3,5-Difluoro-4-methanesulfonylamino-phenyl)-ethyl]-2-(3,4-difluorobenzyl)-thiazole-4-amide]", "IC50": "> 10000"},
      {"smiles": "CC(C)c1ccccc1Oc1nc(C(=O)N[C@H](C)c2cc(F)c(NS(C)(=O)=O)c(F)c2)co1", "note": "[Example 3, 2-(2-Isopropyl-phenoxy)-oxazole-4-carboxylic acid [1-(3,5-difluoro-4-methanesulfonylamino-phenyl)-ethyl]-amide]", "IC50": 490},
      {"smiles": "CC(C)Oc1cccc(Oc2nc(C(=O)N[C@H](C)c3cc(F)c(NS(C)(=O)=O)c(F)c3)co2)c1", "note": "[Example 48, 2-(3-Isopropoxy-phenoxy)-oxazole-4-carboxylic acid [1-(3,5-difluoro-4-methanesulfonylamino-phenyl)-ethyl]-amide]", "IC50": 1200},
      {"smiles": "C[C@@H](NC(=O)c1coc(N2CCCC3CCCCC32)n1)c1cc(F)c(NS(C)(=O)=O)c(F)c1", "note": "(some centres unmarked) [Example 19, 2-(Octahydro-quinolin-1-yl)-oxazole-4-carboxylic acid [1-(3,5-difluoro-4-methanesulfonylamino-phenyl)-ethyl]-amide]", "IC50": 610},
      {"smiles": "COc1cccc(-c2nc(C(=O)N[C@H](C)c3cc(F)c(NS(C)(=O)=O)c(F)c3)co2)c1", "note": "(stereo in doubt) [Example 68, 2-(3-Methoxy-phenyl)-oxazole-4-carboxylic acid [1-(3,5-difluoro-4-methanesulfonylamino-phenyl)-ethyl]-amide]", "IC50": 1700},
      {"smiles": "CC(C)c1ccc(I)c(Oc2nc(C(=O)N[C@H](C)c3cc(F)c(NS(C)(=O)=O)c(F)c3)co2)c1", "note": "[Example 52, 2-(2-Iodo-5-isopropyl-phenoxy)-oxazole-4-carboxylic acid [1-(3,5-difluoro-4-methanesulfonylamino-phenyl)-ethyl]-amide]", "IC50": 1800},
      {"smiles": "CCCc1ccc(C(F)(F)F)cc1Oc1nc(C(=O)N[C@H](C)c2cc(F)c(NS(C)(=O)=O)c(F)c2)co1", "note": "[Example 41, 2-(2-Propyl-5-trifluoromethyl-phenoxy)-oxazole-4-carboxylic acid [1-(3,5-difluoro-4-methanesulfonylamino-phenyl)-ethyl]-amide]", "IC50": 190},
      {"smiles": "C[C@@H](NC(=O)c1csc(Cc2ccc(C(C)(C)C)cc2)n1)c1cc(F)c(NS(C)(=O)=O)c(F)c1", "note": "[Example 10, (R)—N-[1-(3,5-Difluoro-4-methanesulfonylamino-phenyl)-ethyl]-2-(4-t-butylbenzyl)-thiazole-4-amide]", "IC50": 6400},
      {"smiles": "CCc1cc(-c2ccc(C(=O)N[C@H](C)c3cc(F)c(NS(C)(=O)=O)c(F)c3)o2)cc(C(F)(F)F)c1", "note": "[Example 116, 5-(3-Ethyl-5-trifluoromethyl-phenyl)-furan-2-carboxylic acid [1-(3,5-difluoro-4-methanesulfonylamino-phenyl)-ethyl]-amide]", "IC50": 160},
      {"smiles": "COc1ccc(C(C)C)cc1-c1nc(C(=O)N[C@H](C)c2cc(F)c(NS(C)(=O)=O)c(F)c2)co1", "note": "[Example 77, 2-(5-Isopropyl-2-methoxy-phenyl)-oxazole-4-carboxylic acid [1-(3,5-difluoro-4-methanesulfonylamino-phenyl)-ethyl]-amide]", "IC50": 2000},
      {"smiles": "COc1ccc(-c2nc(C(=O)N[C@H](C)c3cc(F)c(NS(C)(=O)=O)c(F)c3)co2)cc1C(F)(F)F", "note": "(stereo in doubt) [Example 96, 2-(4-Methoxy-3-trifluoromethyl-phenyl)-oxazole-4-carboxylic acid [1-(3,5-difluoro-4-methanesulfonylamino-phenyl)-ethyl]-amide]", "IC50": 1300},
      {"smiles": "CS(=O)(=O)Nc1c(F)cc(CNC(=O)c2csc(Cc3ccc(F)c(F)c3)n2)cc1F", "note": "[Example 12, N-[1-(3,5-Difluoro-4-methanesulfonylamino)-benzyl]-2-(3,4-difluorobenzyl)-thiazole-4-amide]", "IC50": "> 10000"},
      {"smiles": "CC(C)c1ccc(Oc2nc(C(=O)N[C@H](C)c3cc(F)c(NS(C)(=O)=O)c(F)c3)co2)cc1", "note": "[Example 5, 2-(4-Isopropyl-phenoxy)-oxazole-4-carboxylic acid [1-(3,5-difluoro-4-methanesulfonylamino-phenyl)-ethyl]-amide]", "IC50": 3600}
    ]}
  ]
}
